Reference: patent US9504697B2, “Progesterone treatment for improving sleep quality” (BESINS Healthcare Luxembourg SARL, priority 2011, dated 2016)

Legend:
post-menopausal women = post-menopausal women administered 300 mg progesterone; cited from earlier work
postmenopausal women [1] = assay: Polygraphic sleep recordings in randomized, double-blind, placebo-controlled study, prevention of sleep disturbances; format: in vivo, human
Description: Eight postmenopausal women, aged 48-74 yr (mean 57.4 yr), were selected after a careful clinical and biological evaluation. Investigations were performed 2-17 years (mean: 8.0 years) after natural menopause (seven subjects) or bilateral ovariectomy (one subject). Mean age at menopause was 49.4 years (range: 41-57 yr). Three subjects had never received hormone replacement therapy, and five subjects had been off such treatment for 2-6 months (mean: 4.4 months) at the time of enrollment. Body weight was in the normal range for all (mean+/-SEM of body mass index 22.1+/-0.8 kg/m2). In all subjects, estradiol plasma levels were <10 ng/liter. FSH plasma levels averaged 90 IU/liter (range: 66-136 IU/liter). The protocol was designed as a randomized, double-blind, placebo-controlled study. Thereafter, all subjects participated in random order in two studies (referred to as placebo and progesterone), separated from each other by at least 1 month. The placebo study preceded the progesterone study in four subjects and followed the progesterone study in the other four volunteers. Each study included an initial 20 day ambulatory period. During this period, the subjects were asked to maintain regular sleep-wake cycles (bedtime 2300-0700 h in darkness) and meal schedules (0800 h, 1230 h, 1900 h). They took daily, at 2300 h, a capsule of either 300 mg of progesterone or placebo. At the end of the ambulatory period, they were admitted at about 1600 h to the sleep laboratory for 44 hours. During hospitalization, subjects were maintained in a seated/upright position in normal indoor light conditions (+/-300 lux), and no naps were allowed during the scheduled wake periods (0700-2300 h). Meals were served at 0800 h, 1230 h, and 1900 h. At 2300 h, they received their usual capsule of either 300 mg of progesterone or placebo. During both scheduled sleep periods (2300-0700 h), subjects were kept recumbent in total darkness and sleep was polygraphically recorded. On the morning after the first night, a sterile heparin-lock catheter was inserted intravenously in the forearm and blood samples were collected for 24 hours at 15-minute intervals. The iv line was kept permeable by a slow drip of heparinized saline. During the sleep period, the indwelling catheter was connected to plastic tubing extending to an adjacent room and blood samples were collected remotely, as previously described (Leproult et al., 2005, Clin. Endocrinol. 63: 298-304). The total amount of blood withdrawn was less than 300 ml for each inpatient study. The subjects were discharged at about 1200 h after the second night. Polygraphic sleep recordings were visually scored at 30 second intervals, using standardized criteria ([…] and Kales, 1968, Los Angeles: UCLA Brain Information Service/Brain Research Institute) by the same experienced scorer who was blind to the clinical condition of the subject. Sleep onset and morning awakening were defined as, respectively, the times of the first and last 30 second intervals scored II, III, IV, or rapid eye movement (REM). The sleep period was defined as the time interval separating sleep onset and final awakening. Total sleep time was defined as the sleep period minus the total duration of wake after sleep onset (WASO). Sleep latency was defined as the time interval from lights off until sleep onset. Sleep efficiency was calculated as the total sleep time, expressed as percentage of the time allocated to sleep. Slow-wave sleep (SWS) was defined as stages III+IV. A spectral analysis was performed on the central electroencephalogram lead (PRANA, PhiTools, Strasbourg, France) (Latta et al., 2005, Sleep 28: 1525-1534). Muscular, ocular, and movement artifacts were eliminated before spectral analysis. Delta activity was calculated as the absolute spectral power in the frequency band 0.5-4 Hz. Mean delta power was calculated per 30-sec epoch. Delta power in non-REM sleep quantifies slow-wave activity (SWA) (i.e., the intensity of SWS). […]

postmenopausal women [2] = assay: Hormone levels (GH, IGF-I, TSH, free T4) from 24 hour blood sampling in the placebo-controlled study; format: in vivo, human
Description: Each study included an initial 20 day ambulatory period. During this period, the subjects were asked to maintain regular sleep-wake cycles (bedtime 2300-0700 h in darkness) and meal schedules (0800 h, 1230 h, 1900 h). They took daily, at 2300 h, a capsule of either 300 mg of progesterone or placebo.
At the end of the ambulatory period, they were admitted at about 1600 h to the sleep laboratory for 44 hours. During hospitalization, subjects were maintained in a seated/upright position in normal indoor light conditions (+/−300 lux), and no naps were allowed during the scheduled wake periods (0700-2300 h). Meals were served at 0800 h, 1230 h, and 1900 h. At 2300 h, they received their usual capsule of either 300 mg of progesterone or placebo. During both scheduled sleep periods (2300-0700 h), subjects were kept recumbent in total darkness and sleep was polygraphically recorded.
On the morning after the first night, a sterile heparin-lock catheter was inserted intravenously in the forearm and blood samples were collected for 24 hours at 15-minute intervals. The iv line was kept permeable by a slow drip of heparinized saline. During the sleep period, the indwelling catheter was connected to plastic tubing extending to an adjacent room and blood samples were collected remotely, as previously described (Leproult et al., 2005, Clin. Endocrinol. 63: 298-304). The total amount of blood withdrawn was less than 300 ml for each inpatient study. The subjects were discharged at about 1200 h after the second night.
Nonparametric tests (Friedman test, Wilcoxon signed rank test, Spearman rank test) were used for statistical calculations (StatView SE+ software for Macintosh computers, Abacus Concepts Inc., Berkeley, Calif.). Detection of outliers was performed by the Grubbs test (Grubbs, 1969, Technometrics 11:1-21; Grubbs and Beck, 1972, Technometrics 14:847-854). All group values are expressed as the mean+/−SEM.
Levels of growth hormone (GH) and thyroid-stimulating hormone (TSH) also were assessed.

men = men orally administered 300 mg progesterone; cited from earlier work
[3] = night 2 (with catheter), P=0.04

**Q.** Which “intermittent time spent awake and REM sleep in the first third of the night” value (post-menopausal women) does the source give for `CC(=O)[C@H]1CC[C@H]2[C@@H]3CCC4=CC(=O)CC[C@]4(C)[C@H]3CC[C@]12C` [progesterone, pregn-4-ene-3,20-dione] here?
**A.** decrease of intermittent time spent awake and increase in REM sleep in the first third of the night

**Q.** What about the “total duration of REM, Stage 2 or SWS, absolute power spectra; baseline, placebo and progesterone” value (post-menopausal women) of the same compound?
**A.** no significant differences

**Q.** And the “sleep duration and architecture, placebo versus progesterone treatment” value (postmenopausal women [1]; night 1 (without catheter), 300 mg daily at 2300 h, after 20 day ambulatory period)?
**A.** no differences

**Q.** What about the “sleep latency, stage I, stage II, REM sleep, and REM latency, progesterone versus placebo” value (postmenopausal women [1]; night 2 (with catheter)) of the same compound?
**A.** no differences

**Q.** And the “sleep efficiency higher under progesterone compared with placebo” value (postmenopausal women [1]; [3])?
**A.** 15%

**Q.** And the “total SWA higher under progesterone compared with placebo” value (postmenopausal women [1]; [3])?
**A.** more than 40%

**Q.** What about the “total sleep time higher under progesterone compared with placebo” value (postmenopausal women [1]; [3]) of the same compound?
**A.** 20%

**Q.** And the “mean WASO duration lower under progesterone compared with placebo” value (postmenopausal women [1]; night 2 (with catheter), P=0.05)?
**A.** more than 50%

**Q.** What about the SWS duration (postmenopausal women [1]; night 2 (with catheter), all eight subjects, mean+/-SEM) of the same compound?
**A.** 84 ± 10 min

**Q.** And the “SWS duration, outlier excluded” value (postmenopausal women [1]; night 2 (with catheter), outlier excluded from the analysis, mean+/-SEM, P=0.04 vs placebo)?
**A.** 79 ± 10 min

**Q.** What about the “other sleep variables, night 2 compared with night 1” value (postmenopausal women [1]; under progesterone 300 mg daily, night 2 with iv catheter) of the same compound?
**A.** not significantly altered

**Q.** What about the “decrease in stage II, night 2 compared with night 1” value (postmenopausal women [1]; under progesterone 300 mg daily, night 2 with iv catheter, P=0.04) of the same compound?
**A.** about 20%

**Q.** What about the “decrease in total sleep time, night 2 compared with night 1” value (postmenopausal women [1]; under progesterone 300 mg daily, night 2 with iv catheter, P=0.05) of the same compound?
**A.** about 20%

**Q.** And the “decrease in sleep efficiency, night 2 compared with night 1” value (postmenopausal women [1]; under progesterone 300 mg daily, night 2 with iv catheter, P=0.07)?
**A.** about 20%

**Q.** And the “GH secretion over the scheduled wake period” value (postmenopausal women [2]; 0700-2300 h, mean+/-SEM, similar under both conditions)?
**A.** 239 ± 91 µg

**Q.** What about the “slope of the linear regression of TSH values over the 2300-0100 period” value (postmenopausal women [2]; 2300-0100 period, P=0.05) of the same compound?
**A.** significant negative slope

**Q.** What about the “TSH levels over the 2300-0700 period” value (postmenopausal women [2]; 2300-0700 period, P=0.05 vs placebo) of the same compound?
**A.** 0.98+/−0.18 mU/l

**Q.** And the “GH secretion over the scheduled sleep period” value (postmenopausal women [2]; 2300-0700 h, mean+/-SEM, P=0.05 vs placebo)?
**A.** 154 ± 44 µg

**Q.** What about the “24 hour TSH levels” value (postmenopausal women [2]; 24 hour, P=0.07 vs placebo) of the same compound?
**A.** 0.91+/−0.13 mU/l

**Q.** And the “24 hour free T4 levels” value (postmenopausal women [2]; 24 hour, P=0.53 vs placebo)?
**A.** 10.3 ± 0.4 ng/L

**Q.** What about the IGF-I levels (postmenopausal women [2]; measured on 2-3 morning plasma samples, P=0.09 vs placebo) of the same compound?
**A.** 103 ± 23 µg/L

**Q.** And the “effect on sleep pattern” value (men)?
**A.** increase of stage N2 time and decrease of stage N3 time and of REM sleep
